± gives the uncertainty stated by the source.
Assay: xn = mol fraction of the nth substance listed
Conditions: 101 kPa

Q: With `CCC(=O)[O-].C[NH2+]Cc1ccccc1` + CN(C)C=O as the compound, how does the viscosity (293.15 K, x1 = 0.006359) read?
A: 0.956 ± 0.035 mPa·s

Q: And the viscosity (293.15 K, x1 = 0.01185)?
A: 0.969 ± 0.036 mPa·s

Q: And the viscosity (293.15 K, x1 = 0.01701)?
A: 0.989 ± 0.036 mPa·s

Q: What about the viscosity (293.15 K, x1 = 0.02175) of the same compound?
A: 1.007 ± 0.036 mPa·s

Q: And the viscosity (293.15 K, x1 = 0.02663)?
A: 1.016 ± 0.036 mPa·s

Q: And the viscosity (293.15 K, x1 = 0.03255)?
A: 1.045 ± 0.037 mPa·s

Q: And the viscosity (293.15 K, x1 = 0.0357)?
A: 1.057 ± 0.037 mPa·s

Q: What about the viscosity (293.15 K, x1 = 0.04024) of the same compound?
A: 1.072 ± 0.037 mPa·s

Q: And the viscosity (298.15 K, x1 = 0.006359)?
A: 0.914 ± 0.035 mPa·s

Q: What about the viscosity (298.15 K, x1 = 0.01185) of the same compound?
A: 0.926 ± 0.035 mPa·s

Q: What about the viscosity (298.15 K, x1 = 0.01701) of the same compound?
A: 0.944 ± 0.035 mPa·s

Q: What about the viscosity (298.15 K, x1 = 0.02175) of the same compound?
A: 0.958 ± 0.035 mPa·s

Q: What about the viscosity (298.15 K, x1 = 0.02663) of the same compound?
A: 0.966 ± 0.036 mPa·s

Q: And the viscosity (298.15 K, x1 = 0.03255)?
A: 0.991 ± 0.036 mPa·s

Q: And the viscosity (298.15 K, x1 = 0.0357)?
A: 1.001 ± 0.036 mPa·s

Q: What about the viscosity (298.15 K, x1 = 0.04024) of the same compound?
A: 1.015 ± 0.036 mPa·s

Q: What about the viscosity (303.15 K, x1 = 0.006359) of the same compound?
A: 0.877 ± 0.034 mPa·s

Q: And the viscosity (303.15 K, x1 = 0.01185)?
A: 0.888 ± 0.034 mPa·s

Q: And the viscosity (303.15 K, x1 = 0.01701)?
A: 0.902 ± 0.034 mPa·s

Q: And the viscosity (303.15 K, x1 = 0.02175)?
A: 0.915 ± 0.035 mPa·s

Q: And the viscosity (303.15 K, x1 = 0.02663)?
A: 0.922 ± 0.035 mPa·s

Q: And the viscosity (303.15 K, x1 = 0.03255)?
A: 0.944 ± 0.035 mPa·s

Q: And the viscosity (303.15 K, x1 = 0.0357)?
A: 0.953 ± 0.035 mPa·s

Q: And the viscosity (303.15 K, x1 = 0.04024)?
A: 0.965 ± 0.036 mPa·s

Q: What about the viscosity (308.15 K, x1 = 0.006359) of the same compound?
A: 0.845 ± 0.034 mPa·s

Q: And the viscosity (308.15 K, x1 = 0.01185)?
A: 0.854 ± 0.034 mPa·s

Q: And the viscosity (308.15 K, x1 = 0.01701)?
A: 0.866 ± 0.034 mPa·s

Q: What about the viscosity (308.15 K, x1 = 0.02175) of the same compound?
A: 0.878 ± 0.034 mPa·s

Q: And the viscosity (308.15 K, x1 = 0.02663)?
A: 0.884 ± 0.034 mPa·s

Q: And the viscosity (308.15 K, x1 = 0.03255)?
A: 0.903 ± 0.035 mPa·s

Q: And the viscosity (308.15 K, x1 = 0.0357)?
A: 0.911 ± 0.035 mPa·s

Q: And the viscosity (308.15 K, x1 = 0.04024)?
A: 0.921 ± 0.035 mPa·s

Q: What about the viscosity (313.15 K, x1 = 0.006359) of the same compound?
A: 0.816 ± 0.033 mPa·s

Q: And the viscosity (313.15 K, x1 = 0.01185)?
A: 0.824 ± 0.033 mPa·s

Q: And the viscosity (313.15 K, x1 = 0.01701)?
A: 0.835 ± 0.033 mPa·s

Q: What about the viscosity (313.15 K, x1 = 0.02175) of the same compound?
A: 0.845 ± 0.034 mPa·s

Q: And the viscosity (313.15 K, x1 = 0.02663)?
A: 0.85 ± 0.034 mPa·s

Q: And the viscosity (313.15 K, x1 = 0.03255)?
A: 0.866 ± 0.034 mPa·s

Q: And the viscosity (313.15 K, x1 = 0.0357)?
A: 0.874 ± 0.034 mPa·s

Q: What about the viscosity (313.15 K, x1 = 0.04024) of the same compound?
A: 0.882 ± 0.034 mPa·s

Q: And the viscosity (318.15 K, x1 = 0.006359)?
A: 0.79 ± 0.033 mPa·s

Q: What about the viscosity (318.15 K, x1 = 0.01185) of the same compound?
A: 0.797 ± 0.033 mPa·s

Q: And the viscosity (318.15 K, x1 = 0.01701)?
A: 0.807 ± 0.033 mPa·s

Q: What about the viscosity (318.15 K, x1 = 0.02175) of the same compound?
A: 0.815 ± 0.033 mPa·s

Q: What about the viscosity (318.15 K, x1 = 0.02663) of the same compound?
A: 0.819 ± 0.033 mPa·s

Q: What about the viscosity (318.15 K, x1 = 0.03255) of the same compound?
A: 0.834 ± 0.033 mPa·s

Q: And the viscosity (318.15 K, x1 = 0.0357)?
A: 0.841 ± 0.034 mPa·s

Q: What about the viscosity (318.15 K, x1 = 0.04024) of the same compound?
A: 0.848 ± 0.034 mPa·s

Q: What about the viscosity (323.15 K, x1 = 0.006359) of the same compound?
A: 0.766 ± 0.032 mPa·s

Q: What about the viscosity (323.15 K, x1 = 0.01185) of the same compound?
A: 0.772 ± 0.032 mPa·s

Q: And the viscosity (323.15 K, x1 = 0.01701)?
A: 0.781 ± 0.033 mPa·s

Q: And the viscosity (323.15 K, x1 = 0.02175)?
A: 0.788 ± 0.033 mPa·s

Q: And the viscosity (323.15 K, x1 = 0.02663)?
A: 0.792 ± 0.033 mPa·s

Q: What about the viscosity (323.15 K, x1 = 0.03255) of the same compound?
A: 0.805 ± 0.033 mPa·s

Q: What about the viscosity (323.15 K, x1 = 0.0357) of the same compound?
A: 0.812 ± 0.033 mPa·s

Q: And the viscosity (323.15 K, x1 = 0.04024)?
A: 0.818 ± 0.033 mPa·s

Q: And the viscosity (328.15 K, x1 = 0.006359)?
A: 0.745 ± 0.032 mPa·s

Q: What about the viscosity (328.15 K, x1 = 0.01185) of the same compound?
A: 0.75 ± 0.032 mPa·s

Q: And the viscosity (328.15 K, x1 = 0.01701)?
A: 0.758 ± 0.032 mPa·s

Q: And the viscosity (328.15 K, x1 = 0.02175)?
A: 0.764 ± 0.032 mPa·s

Q: And the viscosity (328.15 K, x1 = 0.02663)?
A: 0.768 ± 0.032 mPa·s

Q: What about the viscosity (328.15 K, x1 = 0.03255) of the same compound?
A: 0.779 ± 0.033 mPa·s

Q: What about the viscosity (328.15 K, x1 = 0.0357) of the same compound?
A: 0.786 ± 0.033 mPa·s

Q: And the viscosity (328.15 K, x1 = 0.04024)?
A: 0.791 ± 0.033 mPa·s

Q: Which results are given for `CS(=O)(=O)[O-].C[N+](C)(CCO)CCO` + CO?
A: viscosity (298.15 K, x1 = 0.1): 2.03 ± 0.14 mPa·s; viscosity (298.15 K, x1 = 0.1996): 5.81 ± 0.38 mPa·s; viscosity (298.15 K, x1 = 0.3001): 14.8 ± 1 mPa·s; viscosity (298.15 K, x1 = 0.4004): 34.4 ± 2.2 mPa·s; viscosity (298.15 K, x1 = 0.5005): 74.1 ± 4.7 mPa·s; viscosity (298.15 K, x1 = 0.5976): 164 ± 12 mPa·s; viscosity (298.15 K, x1 = 0.7022): 316 ± 26 mPa·s; viscosity (298.15 K, x1 = 0.8012): 566 ± 55 mPa·s; viscosity (298.15 K, x1 = 0.9012): 940 ± 100 mPa·s; viscosity (298.15 K, x1 = 1): 1495 ± 180 mPa·s; viscosity (303.15 K, x1 = 0.1): 1.85 ± 0.12 mPa·s; viscosity (303.15 K, x1 = 0.1996): 5.12 ± 0.33 mPa·s; viscosity (303.15 K, x1 = 0.3001): 12.57 ± 0.8 mPa·s; viscosity (303.15 K, x1 = 0.4004): 28.1 ± 1.8 mPa·s; viscosity (303.15 K, x1 = 0.5005): 58.3 ± 3.7 mPa·s; viscosity (303.15 K, x1 = 0.5976): 125.1 ± 8.5 mPa·s; viscosity (303.15 K, x1 = 0.7022): 231 ± 18 mPa·s; viscosity (303.15 K, x1 = 0.8012): 402 ± 36 mPa·s; viscosity (303.15 K, x1 = 0.9012): 656 ± 65 mPa·s; viscosity (303.15 K, x1 = 1): 1021 ± 110 mPa·s; viscosity (308.15 K, x1 = 0.1): 1.69 ± 0.11 mPa·s; viscosity (308.15 K, x1 = 0.1996): 4.55 ± 0.3 mPa·s; viscosity (308.15 K, x1 = 0.3001): 10.99 ± 0.7 mPa·s; viscosity (308.15 K, x1 = 0.4004): 23.3 ± 1.5 mPa·s; viscosity (308.15 K, x1 = 0.5005): 46.7 ± 2.9 mPa·s; viscosity (308.15 K, x1 = 0.5976): 86.6 ± 5.6 mPa·s; viscosity (308.15 K, x1 = 0.7022): 175 ± 13 mPa·s; viscosity (308.15 K, x1 = 0.8012): 296 ± 24 mPa·s; viscosity (308.15 K, x1 = 0.9012): 469 ± 43 mPa·s; viscosity (308.15 K, x1 = 1): 716 ± 73 mPa·s; viscosity (313.15 K, x1 = 0.1): 1.55 ± 0.1 mPa·s; viscosity (313.15 K, x1 = 0.1996): 4.06 ± 0.26 mPa·s; viscosity (313.15 K, x1 = 0.3001): 9.61 ± 0.61 mPa·s; viscosity (313.15 K, x1 = 0.4004): 19.6 ± 1.2 mPa·s; viscosity (313.15 K, x1 = 0.5005): 38 ± 2.4 mPa·s; viscosity (313.15 K, x1 = 0.5976): 68.4 ± 4.3 mPa·s; viscosity (313.15 K, x1 = 0.7022): 134.1 ± 9.2 mPa·s; viscosity (313.15 K, x1 = 0.8012): 222 ± 17 mPa·s; viscosity (313.15 K, x1 = 0.9012): 344 ± 29 mPa·s; viscosity (313.15 K, x1 = 1): 513 ± 48 mPa·s; viscosity (318.15 K, x1 = 0.1): 1.431 ± 0.094 mPa·s; viscosity (318.15 K, x1 = 0.1996): 3.64 ± 0.24 mPa·s; viscosity (318.15 K, x1 = 0.3001): 8.35 ± 0.53 mPa·s; viscosity (318.15 K, x1 = 0.4004): 16.6 ± 1 mPa·s; viscosity (318.15 K, x1 = 0.5005): 31.3 ± 2 mPa·s; viscosity (318.15 K, x1 = 0.5976): 54.9 ± 3.4 mPa·s; viscosity (318.15 K, x1 = 0.7022): 105.2 ± 6.9 mPa·s; viscosity (318.15 K, x1 = 0.8012): 170 ± 12 mPa·s; viscosity (318.15 K, x1 = 0.9012): 258 ± 20 mPa·s; viscosity (318.15 K, x1 = 1): 378 ± 33 mPa·s; viscosity (323.15 K, x1 = 0.1): 1.323 ± 0.087 mPa·s; viscosity (323.15 K, x1 = 0.1996): 3.29 ± 0.21 mPa·s; viscosity (323.15 K, x1 = 0.3001): 7.37 ± 0.47 mPa·s; viscosity (323.15 K, x1 = 0.4004): 14.24 ± 0.9 mPa·s; viscosity (323.15 K, x1 = 0.5005): 26.1 ± 1.6 mPa·s; viscosity (323.15 K, x1 = 0.5976): 44.7 ± 2.8 mPa·s; viscosity (323.15 K, x1 = 0.7022): 75.7 ± 4.7 mPa·s; viscosity (323.15 K, x1 = 0.8012): 132.2 ± 9 mPa·s; viscosity (323.15 K, x1 = 0.9012): 197 ± 15 mPa·s; viscosity (323.15 K, x1 = 1): 282 ± 23 mPa·s

— the CheMixHub ionic liquid set
